According to patent publication US9434743B2, “Indazole derivatives” (TAKEDA PHARMACEUTICAL COMPANY LIMITED, priority 2012, dated 2016):

How the values were obtained:
human MetAP2 enzyme [1] = biological target: T1, human MetAP2 enzyme (Homo sapiens, UniProt P50579); test: MetAP2 enzyme assay, enzyme complexed with manganese ions; details: MetAP2 Mn pIC50, MetAP2 enzyme complexed with manganese ions; Met-AMC substrate at Km
human MetAP2 enzyme [2] = biological target: T1, human MetAP2 enzyme; test: MetAP2 enzyme assay, enzyme complexed with cobalt ions; details: MetAP2 Co pIC50, MetAP2 enzyme complexed with cobalt ions; Met-AMC substrate at Km

T1 sequence (P50579 whole entry): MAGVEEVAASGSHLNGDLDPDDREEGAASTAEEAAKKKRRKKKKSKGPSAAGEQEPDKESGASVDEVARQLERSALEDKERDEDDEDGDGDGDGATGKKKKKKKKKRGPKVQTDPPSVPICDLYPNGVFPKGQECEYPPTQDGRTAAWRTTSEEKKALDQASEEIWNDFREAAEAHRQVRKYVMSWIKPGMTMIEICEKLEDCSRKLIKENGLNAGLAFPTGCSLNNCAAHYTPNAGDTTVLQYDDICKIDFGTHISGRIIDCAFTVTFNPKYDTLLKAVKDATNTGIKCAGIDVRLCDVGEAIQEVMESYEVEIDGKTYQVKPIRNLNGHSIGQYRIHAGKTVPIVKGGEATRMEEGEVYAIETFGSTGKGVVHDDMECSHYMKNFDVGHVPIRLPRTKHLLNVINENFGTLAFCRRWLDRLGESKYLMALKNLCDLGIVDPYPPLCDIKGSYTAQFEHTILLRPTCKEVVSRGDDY

Row | IC50 (human MetAP2 enzyme [1]) [nM] | IC50 (human MetAP2 enzyme [2]) [nM] | SMILES
1 | 31.6 | 1580 | Cn1cnc(N)c(-c2cc(C(F)(F)F)cc3[nH]ncc23)c1=O [Example 245, 6-amino-3-methyl-5-(6-(trifluoromethyl)-1H-indazol-4-yl)pyrimidin-4(3H)-one]
2 | 5.01 | 31.6 | Cc1ncccc1-c1cc(C(F)(F)F)cc2[nH]ncc12 [Example 50, 4-(2-methylpyridin-3-yl)-6-(trifluoromethyl)-1H-indazole]
3 | 6.31 | 79.4 | OCc1cncc(-c2cc(C(F)(F)F)cc3[nH]ncc23)c1 [Example 29, (5-(6-(trifluoromethyl)-1H-indazol-4-yl)pyridin-3-yl)methanol]
4 | 15.8 | 200 | FC(F)(F)c1cc(-c2cccc3cccnc23)c2cn[nH]c2c1 [Example 31, 8-(6-(trifluoromethyl)-1H-indazol-4-yl)quinoline]
5 | 7.94 | 31.6 | CC(=O)Nc1ccc(-c2cc(C(F)(F)F)cc3[nH]ncc23)c(C)n1 [Example 178, N-(6-methyl-5-(6-(trifluoromethyl)-1H-indazol-4-yl)pyridin-2-yl)acetamide]
6 | 5.01 | 39.8 | COc1nc(C(N)=O)ccc1-c1cc(C(F)(F)F)cc2[nH]ncc12 [Example 391, 6-methoxy-5-(6-(trifluoromethyl)-1H-indazol-4-yl)picolinamide]
7 | 50.1 | 501 | CN(C)C(=O)c1ccccc1-c1cc(C(F)(F)F)cc2[nH]ncc12 [Example 47, N,N-dimethyl-2-(6-(trifluoromethyl)-1H-indazol-4-yl)benzamide]
8 | 6.31 | 100 | OCCn1cc(-c2cc(C(F)(F)F)cc3[nH]ncc23)cn1 [Example 349, 2-(4-(6-(trifluoromethyl)-1H-indazol-4-yl)-1H-pyrazol-1-yl)ethanol]
9 | 6.31 | 63.1 | FC(F)(F)c1cc(-c2ccc3[nH]ncc3c2)c2cn[nH]c2c1 [Example 236, 6-(trifluoromethyl)-1H,1′H-4,5′-biindazole]
10 | 7.94 | 31.6 | COc1ccc(CC(N)=O)cc1-c1cc(C(F)(F)F)cc2[nH]ncc12 [Example 350, 2-(4-methoxy-3-(6-(trifluoromethyl)-1H-indazol-4-yl)phenyl)acetamide]
11 | 10 | 39.8 | COc1ccc(C(=O)N(C)C)cc1-c1cc(C(F)(F)F)cc2[nH]ncc12 [Example 272, 4-methoxy-N,N-dimethyl-3-(6-(trifluoromethyl)-1H-indazol-4-yl)benzamide]
12 | 6.31 | 39.8 | Cc1c(-c2cc(C(F)(F)F)cc3[nH]ncc23)c(N)nn1C [Example 381, 1,5-dimethyl-4-(6-(trifluoromethyl)-1H-indazol-4-yl)-1H-pyrazol-3-amine]
13 | 39.8 | 316 | CNS(=O)(=O)c1cccc(-c2cc(C(F)(F)F)cc3[nH]ncc23)c1 [Example 104, N-methyl-3-(6-(trifluoromethyl)-1H-indazol-4-yl)benzenesulfonamide]
14 | 6.31 | 50.1 | CNC(=O)c1ccc(F)c(-c2cc(C(F)(F)F)cc3[nH]ncc23)c1 [Example 114, 4-fluoro-N-methyl-3-(6-(trifluoromethyl)-1H-indazol-4-yl)benzamide]
15 | 12.6 | 79.4 | FC(F)(F)c1cc(-c2cnc3[nH]ccc3c2)c2cn[nH]c2c1 [Example 59, 4-(1H-pyrrolo[2,3-b]pyridin-5-yl)-6-(trifluoromethyl)-1H-indazole]
16 | 5.01 | 63.1 | O=S(=O)(NCCO)c1ccc(-c2cc(C(F)(F)F)cc3[nH]ncc23)cn1 [Example 378, N-(2-hydroxyethyl)-5-(6-(trifluoromethyl)-1H-indazol-4-yl)pyridine-2-sulfonamide]
17 | 15.8 | 63.1 | NC(=O)c1cc(-c2cc(C(F)(F)F)cc3[nH]ncc23)ccc1Cl [Example 63, 2-chloro-5-(6-(trifluoromethyl)-1H-indazol-4-yl)benzamide]
18 | 7.94 | 126 | O=S(=O)(c1ccc(-c2cc(C(F)(F)F)cc3[nH]ncc23)cc1)n1cccn1 [Example 223, 4-(4-(1H-pyrazol-1-ylsulfonyl)phenyl)-6-(trifluoromethyl)-1H-indazole]
19 | 6.31 | 39.8 | Cc1ncc(-c2cc(C(F)(F)F)cc3[nH]ncc23)c2cc[nH]c12 [Example 292, 4-(7-methyl-1H-pyrrolo[2,3-c]pyridin-4-yl)-6-(trifluoromethyl)-1H-indazole]
20 | 3.98 | 50.1 | Cc1[nH]c(=O)ccc1-c1cc(C(F)(F)F)cc2[nH]ncc12 [Example 389, 6-methyl-5-(6-(trifluoromethyl)-1H-indazol-4-yl)pyridin-2(1H)-one]
21 | 12.6 | 631 | Oc1ncccc1-c1cc(C(F)(F)F)cc2[nH]ncc12 [Example 210, 3-(6-(trifluoromethyl)-1H-indazol-4-yl)pyridin-2-ol]
22 | 5.01 | 50.1 | COc1ccc(-c2cc(C(F)(F)F)cc3[nH]ncc23)c(CO)c1 [Example 189, (5-methoxy-2-(6-(trifluoromethyl)-1H-indazol-4-yl)phenyl)methanol]

The next lines start with the compound.

Row | SMILES | IC50 (human MetAP2 enzyme [1]) [nM] | IC50 (human MetAP2 enzyme [2]) [nM]
23 | Cn1cc(C(=O)NC2CC2)cc(-c2cc(C(F)(F)F)cc3[nH]ncc23)c1=O [Example 357, N-cyclopropyl-1-methyl-6-oxo-5-(6-(trifluoromethyl)-1H-indazol-4-yl)-1,6-dihydropyridine-3-carboxamide] | 7.94 | 200
24 | O=C(c1ccc(-c2cc(C(F)(F)F)cc3[nH]ncc23)cn1)N1CCOCC1 [Example 262, morpholino(5-(6-(trifluoromethyl)-1H-indazol-4-yl)pyridin-2-yl)methanone] | 10 | 200
25 | FC(F)(F)c1cc(-c2cnn(CCN3CCOCC3)c2)c2cn[nH]c2c1 [Example 74, 4-(2-(4-(6-(trifluoromethyl)-1H-indazol-4-yl)-1H-pyrazol-1-yl)ethyl)morpholine] | 3.98 | 50.1
26 | Cc1nn(CC(=O)NCCO)c(C)c1-c1cc(C(F)(F)F)cc2[nH]ncc12 [Example 386, 2-(3,5-dimethyl-4-(6-(trifluoromethyl)-1H-indazol-4-yl)-1H-pyrazol-1-yl)-N-(2-hydroxyethyl)acetamide] | 12.6 | 63.1
27 | O=C(NC1CC1)c1c[nH]c(=O)c(-c2cc(C(F)(F)F)cc3[nH]ncc23)c1 [Example 332, N-cyclopropyl-6-oxo-5-(6-(trifluoromethyl)-1H-indazol-4-yl)-1,6-dihydropyridine-3-carboxamide] | 12.6 | 316
28 | Cc1nn(CC(=O)NCCO)cc1-c1cc(C(F)(F)F)cc2[nH]ncc12 [Example 279, N-(2-hydroxyethyl)-2-(3-methyl-4-(6-(trifluoromethyl)-1H-indazol-4-yl)-1H-pyrazol-1-yl)acetamide] | 5.01 | 50.1
29 | CN1CCN(C(=O)c2cc(-c3cc(C(F)(F)F)cc4[nH]ncc34)cnc2N)CC1 [Example 282, (2-amino-5-(6-(trifluoromethyl)-1H-indazol-4-yl)pyridin-3-yl)(4-methylpiperazin-1-yl)methanone] | 6.31 | 50.1
30 | Cc1nc(CCS(C)(=O)=O)ccc1-c1cc(C(F)(F)F)cc2[nH]ncc12 [Example 409, 4-(2-methyl-6-(2-(methylsulfonyl)ethyl)pyridin-3-yl)-6-(trifluoromethyl)-1H-indazole] | 3.98 | 15.8
31 | OC(COc1ccccc1-c1cc(C(F)(F)F)cc2[nH]ncc12)CN1CCOCC1 (stereo not drawn) [Example 180, 1-morpholino-3-(2-(6-(trifluoromethyl)-1H-indazol-4-yl)phenoxy)propan-2-ol] | 39.8 | 1000
32 | Cn1cc(C(=O)NCC(F)F)cc(-c2cc(C(F)(F)F)cc3[nH]ncc23)c1=O [Example 355, N-(2,2-difluoroethyl)-1-methyl-6-oxo-5-(6-(trifluoromethyl)-1H-indazol-4-yl)-1,6-dihydropyridine-3-carboxamide] | 5.01 | 316
33 | Cc1nc(N)nc(C)c1-c1cc(C(F)(F)F)cc2[nH]ncc12 [Example 190, 4,6-dimethyl-5-(6-(trifluoromethyl)-1H-indazol-4-yl)pyrimidin-2-amine] | 39.8 | 200
34 | C[C@H](O)CNC(=O)c1c[nH]c(=O)c(-c2cc(C(F)(F)F)cc3[nH]ncc23)c1 [Example 335, (S)—N-(2-hydroxypropyl)-6-oxo-5-(6-(trifluoromethyl)-1H-indazol-4-yl)-1,6-dihydropyridine-3-carboxamide] | 15.8 | 631
35 | O=c1[nH]c2cc(-c3cc(C(F)(F)F)cc4[nH]ncc34)cnc2[nH]1 [Example 241, 6-(6-(trifluoromethyl)-1H-indazol-4-yl)-1H-imidazo[4,5-b]pyridin-2(3H)-one] | 2 | 15.8
36 | O=C(NCCO)c1ccc(-c2cc(C(F)(F)F)cc3[nH]ncc23)cc1F [Example 109, 2-fluoro-N-(2-hydroxyethyl)-4-(6-(trifluoromethyl)-1H-indazol-4-yl)benzamide] | 3.16 | 50.1
37 | Cc1c(C(=O)NCCO)cc(-c2cc(C(F)(F)F)cc3[nH]ncc23)c(=O)n1C [Example 404, N-(2-hydroxyethyl)-1,2-dimethyl-6-oxo-5-(6-(trifluoromethyl)-1H-indazol-4-yl)-1,6-dihydropyridine-3-carboxamide] | 12.6 | 251
38 | COc1ccc(C(=O)N2CCOCC2)cc1-c1cc(C(F)(F)F)cc2[nH]ncc12 [Example 267, (4-methoxy-3-(6-(trifluoromethyl)-1H-indazol-4-yl)phenyl)(morpholino)methanone] | 10 | 39.8
39 | Cc1nn(CCN(C)C)c(C)c1-c1cc(C(F)(F)F)cc2[nH]ncc12 [Example 219, 2-(3,5-dimethyl-4-(6-(trifluoromethyl)-1H-indazol-4-yl)-1H-pyrazol-1-yl)-N,N-dimethylethanamine] | 12.6 | 50.1
